Results as given in patent US20050282755A1, “Compositions having antimicrobial activity and uses thereof” (priority 2004, published 2005).
Converted amounts (≈) assume the structure as drawn. Starred links: 1 amine or outer side, 2 acyl side, 3 side chain; linkers in the order of their positions; H or OH if unused. Non-standard residues stand in square brackets, D forms with d. Residues, ends and D or L forms follow the SMILES beside them. *: point of attachment. Ethylenediamine = C(CN[*:2])N[*:1]; Lauroyl = CCCCCCCCCCCC(=O)*; Octanoyl = CCCCCCCC(=O)*; Hexanoyl = CCCCCC(=O)*

Key:
Assay type in all cases: cell-based
[1] = system: Pseudomonas aeruginosa ATCC 27853; experiment: MIC, NCCLS M7-A6 broth microdilution (Table 9, no superscript); conditions: ATCC 27853
Outline: (§1)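 MIC, read as the lowest peptide concentration without visible growth compared with peptide-free wells, after overnight incubation at 37° C. Wells held cation-adjusted Mueller Hinton broth and a final inoculum of 5×10^5 to 1×10^6 CFU/mL from log-phase culture.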

[2] = system: Escherichia coli ATCC 25922; experiment: as above; conditions: ATCC 25922
Outline: as §1

[3] = system: Staphylococcus epidermidis ATCC 12228; experiment: as above; conditions: ATCC 12228
Outline: as §1

Salmonella dublin (Lane) = experiment: as above
Outline: as §1

[4] = system: Candida albicans ATCC 18804; experiment: MIC in yeasts, NCCLS M27-A2 broth microdilution, RPMI 1640 (Table 9, letter e); conditions: ATCC 18804
Outline: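 Plates incubated 24 to 48 hours at 37° C, with yeast seeded at 0.5×10^3–2.5×10^3 CFU/milliliter final in RPMI 1640 (glutamine, phenol red indicator). MIC was read as the lowest peptide concentration showing no visible growth.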

[5] = system: Staphylococcus aureus ATCC 29213; experiment: MIC, NCCLS M7-A6 broth microdilution, cation-adjusted Mueller Hinton broth (Table 9, no superscript); conditions: ATCC 29213
Outline: as §1

[6] = system: Propionibacterium acnes ATCC 6919; experiment: MIC, agar dilution method NCCLS M11-A6, Brucella agar, anaerobic (Table 9, superscript c); conditions: ATCC 6919
Outline: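 MIC taken as the lowest peptide level giving no colonies on the plate. Plates were inoculated to 1.5×10^8 CFU/milliliter, then kept anaerobically at 37° C. for 48-96 hours; method follows NCCLS M11-A6.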

| Compound | MIC P. aeruginosa [1] [µg/mL] | MIC E. coli [2] [µg/mL] | MIC S. epidermidis [3] [µg/mL] | MIC S. dublin (Salmonella dublin (Lane)) [µg/mL] | MIC C. albicans [4] [e ug/mL] | MIC S. aureus [5] [µg/mL] | MIC P. acnes [6] [c ug/mL] |
| --- | --- | --- | --- | --- | --- | --- | --- |
| CCCCCCCCCCCC(=O)N[C@@H](CCCNC(=N)N)C(=O)N[C@@H](CO)C(=O)N[C@@H](CCCNC(=N)N)C(=O)N[C@@H](Cc1c[nH]c2ccccc12)C(=O)N[C@@H](CCCNC(=N)N)C(=O)N[C@@H](CC(=O)O)C(=O)N[C@H](C(=O)N[C@@H](CC(C)C)C(=O)N[C@@H](CCCNC(=N)N)C(=O)N[C@@H](CC(N)=O)C(=O)N[C@@H](Cc1ccccc1)C(=O)N[C@@H](CCSC)C(=O)N[C@@H](CCCNC(=N)N)C(N)=O)C(C)C [Peptide 134, Lauryl-RSRWRDVLRNFMR-NH2] (Lauroyl-RSRWRDVLRNFMR-NH2) | 32 (≈ 16.2 µM) | 4 (≈ 2.03 µM) | 1 (≈ 0.507 µM) | 2 (≈ 1.01 µM) | 1 | 4 (≈ 2.03 µM) | 2 |
| CCCCCCCCCCCC(=O)N[C@@H](CCCNC(=N)N)C(=O)N[C@@H](CO)C(=O)N[C@@H](CCCNC(=N)N)C(=O)N[C@@H](Cc1c[nH]c2ccccc12)C(=O)N[C@@H](CCCNC(=N)N)C(=O)N[C@@H](CC(=O)O)C(=O)N[C@H](C(=O)N[C@@H](C)C(=O)N[C@@H](CCCNC(=N)N)C(=O)N[C@@H](CC(N)=O)C(=O)N[C@@H](Cc1c[nH]c2ccccc12)C(=O)N[C@@H](CCSC)C(=O)N[C@@H](CCCNC(=N)N)C(N)=O)C(C)C [Peptide 139, Lauryl-RSRWRDVARNWMR-NH2] (Lauroyl-RSRWRDVARNWMR-NH2) | 8 (≈ 4.06 µM) | 8 (≈ 4.06 µM) | 2 (≈ 1.02 µM) | 8 (≈ 4.06 µM) | 8 | 4 (≈ 2.03 µM) | 16 |
| CCCCCCCCCCCC(=O)N[C@@H](CCCNC(=N)N)C(=O)N[C@@H](CO)C(=O)N[C@@H](CCCNC(=N)N)C(=O)N[C@@H](Cc1c[nH]c2ccccc12)C(=O)N[C@@H](CCCNC(=N)N)C(=O)N[C@@H](CC(=O)O)C(=O)N[C@@H](Cc1c[nH]c2ccccc12)C(=O)N[C@@H](C)C(=O)N[C@@H](CCCNC(=N)N)C(=O)N[C@@H](CC(N)=O)C(=O)N[C@@H](Cc1ccccc1)C(=O)N[C@@H](CCSC)C(=O)N[C@@H](CCCNC(=N)N)C(N)=O [Peptide 140, Lauryl-RSRWRDWARNFMR-NH2] (Lauroyl-RSRWRDWARNFMR-NH2) | 8 (≈ 3.96 µM) | 4 (≈ 1.98 µM) | 2 (≈ 0.991 µM) | 4 (≈ 1.98 µM) | 2 | 2 (≈ 0.991 µM) | 16 |
| CCCCCCCCCCCC(=O)N[C@@H](CCCNC(=N)N)C(=O)N[C@@H](CO)C(=O)N[C@@H](CCCNC(=N)N)C(=O)N[C@@H](Cc1c[nH]c2ccccc12)C(=O)N[C@@H](CCCNC(=N)N)C(=O)N[C@@H](CC(=O)O)C(=O)N[C@H](C(=O)N[C@@H](C)C(=O)N[C@@H](CCCNC(=N)N)C(=O)N[C@@H](CC(N)=O)C(=O)N[C@@H](Cc1ccccc1)C(=O)N[C@@H](CCSC)C(=O)N[C@@H](CCCNC(=N)N)C(=O)N[C@@H](Cc1c[nH]c2ccccc12)C(N)=O)C(C)C [Peptide 141, Lauryl-RSRWRDVARNFMRW-NH2] (Lauroyl-RSRWRDVARNFMRW-NH2) | >64 | 16 (≈ 7.56 µM) | 4 (≈ 1.89 µM) | 16 (≈ 7.56 µM) | 2 | 16 (≈ 7.56 µM) | 32 |
| CCCCCCCCCCCC(=O)N[C@@H](CCCNC(=N)N)C(=O)N[C@H](CO)C(=O)N[C@@H](CCCNC(=N)N)C(=O)N[C@H](Cc1c[nH]c2ccccc12)C(=O)N[C@@H](CCCNC(=N)N)C(=O)N[C@H](CC(=O)O)C(=O)N[C@@H](C(=O)N[C@H](C)C(=O)N[C@@H](CCCNC(=N)N)C(=O)N[C@H](CC(N)=O)C(=O)N[C@H](Cc1ccccc1)C(=O)N[C@H](CCSC)C(=O)N[C@@H](CCCNC(=N)N)C(N)=O)C(C)C [Peptide 158, Lauryl-RsRwRdvaRnfmR-NH2] (Lauroyl-R[dS]R[dW]R[dD][dV][dA]R[dN][dF][dM]R-NH2) | 4 (≈ 2.07 µM) | 16 (≈ 8.28 µM) | 2 (≈ 1.04 µM) | 16 (≈ 8.28 µM) | 32 | 8 (≈ 4.14 µM) | 8 |
| CCCCCC(=O)NCCNC(=O)[C@H](CCCNC(=N)N)NC(=O)[C@H](CC(C)C)NC(=O)[C@H](Cc1ccccc1)NC(=O)[C@H](CC(N)=O)NC(=O)[C@H](CCCNC(=N)N)NC(=O)[C@H](C)NC(=O)[C@@H](NC(=O)[C@H](CC(=O)O)NC(=O)[C@H](CCCNC(=N)N)NC(=O)[C@H](Cc1c[nH]c2ccccc12)NC(=O)[C@H](CCCNC(=N)N)NC(=O)[C@H](CO)NC(=O)[C@@H](N)CCCNC(=N)N)C(C)C [Peptide 168, H2N-RSRWRDVARNFLR-Ethylamidohexanyl] (H-RSRWRDVARNFLR-{Ethylenediamine-Hexanoyl}; C-terminus assumed) | 32 (≈ 17.1 µM) | 2 (≈ 1.07 µM) | 1 (≈ 0.534 µM) | 16 (≈ 8.55 µM) | 32 | 16 (≈ 8.55 µM) | 64 |
| CCCCCCCC(=O)NCCNC(=O)[C@H](CCCNC(=N)N)NC(=O)[C@H](CCSC)NC(=O)[C@H](Cc1ccccc1)NC(=O)[C@H](CC(N)=O)NC(=O)[C@H](CCCNC(=N)N)NC(=O)[C@H](C)NC(=O)[C@@H](NC(=O)[C@H](CC(=O)O)NC(=O)[C@H](CCCNC(=N)N)NC(=O)[C@H](Cc1c[nH]c2ccccc12)NC(=O)[C@H](CCCNC(=N)N)NC(=O)[C@H](CO)NC(=O)[C@@H](N)CCCNC(=N)N)C(C)C [Peptide 174, H2N-RSRWRDVARNFMR-Ethylamidooctanyl] (H-RSRWRDVARNFMR-{Ethylenediamine-Octanoyl}; C-terminus assumed) | 4 (≈ 2.09 µM) | 2 (≈ 1.04 µM) | 1 (≈ 0.521 µM) | 16 (≈ 8.34 µM) | 32 | 8 (≈ 4.17 µM) | 64 |

Results, then the compound that gave them:

| MIC P. aeruginosa [1] [µg/mL] | MIC E. coli [2] [µg/mL] | MIC S. epidermidis [3] [µg/mL] | MIC S. dublin (Salmonella dublin (Lane)) [µg/mL] | MIC C. albicans [4] [e ug/mL] | MIC S. aureus [5] [µg/mL] | MIC P. acnes [6] [c ug/mL] | Compound |
| --- | --- | --- | --- | --- | --- | --- | --- |
| 32 (≈ 16.4 µM) | 16 (≈ 8.19 µM) | 2 (≈ 1.02 µM) | 8 (≈ 4.1 µM) | 2 | 4 (≈ 2.05 µM) | 2 | CCCCCCCCCCCC(=O)N[C@H](CCCNC(=N)N)C(=O)N[C@H](CO)C(=O)N[C@H](CCCNC(=N)N)C(=O)N[C@H](Cc1c[nH]c2ccccc12)C(=O)N[C@H](CCCNC(=N)N)C(=O)N[C@H](CC(=O)O)C(=O)N[C@H](CC(C)C)C(=O)N[C@H](CC(C)C)C(=O)N[C@H](CCCNC(=N)N)C(=O)N[C@H](CC(N)=O)C(=O)N[C@H](CC(C)C)C(=O)N[C@H](CCSC)C(=O)N[C@H](CCCNC(=N)N)C(N)=O [Peptide 133, Lauryl-rsrwrdllrnlmr-NH2] (Lauroyl-[dR][dS][dR][dW][dR][dD][dL][dL][dR][dN][dL][dM][dR]-NH2) |
| 32 (≈ 16.4 µM) | 8 (≈ 4.09 µM) | 1 (≈ 0.511 µM) | 8 (≈ 4.09 µM) | 1 | 4 (≈ 2.05 µM) | 8 | CCCCCCCCCCCC(=O)N[C@@H](CCCNC(=N)N)C(=O)N[C@@H](CO)C(=O)N[C@@H](CCCNC(=N)N)C(=O)N[C@@H](Cc1c[nH]c2ccccc12)C(=O)N[C@@H](CCCNC(=N)N)C(=O)N[C@@H](CC(=O)O)C(=O)N[C@H](C(=O)N[C@@H](CC(C)C)C(=O)N[C@@H](CCCNC(=N)N)C(=O)N[C@@H](CC(N)=O)C(=O)N[C@@H](Cc1ccccc1)C(=O)N[C@@H](CC(C)C)C(=O)N[C@@H](CCCNC(=N)N)C(N)=O)C(C)C [Peptide 136, Lauryl-RSRWRDVLRNFLR-NH2] (Lauroyl-RSRWRDVLRNFLR-NH2) |
| 16 (≈ 7.78 µM) | 4 (≈ 1.94 µM) | 2 (≈ 0.972 µM) | 4 (≈ 1.94 µM) | 4 | 4 (≈ 1.94 µM) | 2 | CCCCCCCCCCCC(=O)N[C@@H](CCCNC(=N)N)C(=O)N[C@@H](CO)C(=O)N[C@@H](CCCNC(=N)N)C(=O)N[C@@H](Cc1c[nH]c2ccccc12)C(=O)N[C@@H](CCCNC(=N)N)C(=O)N[C@@H](CC(=O)O)C(=O)N[C@@H](Cc1c[nH]c2ccccc12)C(=O)N[C@@H](C)C(=O)N[C@@H](CCCNC(=N)N)C(=O)N[C@@H](CC(N)=O)C(=O)N[C@@H](Cc1c[nH]c2ccccc12)C(=O)N[C@@H](CCSC)C(=O)N[C@@H](CCCNC(=N)N)C(N)=O [Peptide 143, Lauryl-RSRWRDWARNWMR-NH2] (Lauroyl-RSRWRDWARNWMR-NH2) |
| 16 (≈ 8.46 µM) | 8 (≈ 4.23 µM) | 2 (≈ 1.06 µM) | 32 (≈ 16.9 µM) | 64 | 16 (≈ 8.46 µM) | >64 | CCCCCC(=O)NCCNC(=O)[C@H](CCCNC(=N)N)NC(=O)[C@H](CCSC)NC(=O)[C@H](Cc1ccccc1)NC(=O)[C@H](CC(N)=O)NC(=O)[C@H](CCCNC(=N)N)NC(=O)[C@H](C)NC(=O)[C@@H](NC(=O)[C@H](CC(=O)O)NC(=O)[C@H](CCCNC(=N)N)NC(=O)[C@H](Cc1c[nH]c2ccccc12)NC(=O)[C@H](CCCNC(=N)N)NC(=O)[C@H](CO)NC(=O)[C@@H](N)CCCNC(=N)N)C(C)C [Peptide 173, H2N-RSRWRDVARNFMR-Ethylamidohexanyl] (H-RSRWRDVARNFMR-{Ethylenediamine-Hexanoyl}; C-terminus assumed) |
